# Source: PMC11477294, “In Vitro Profiling of the Antiviral Peptide TAT-I24” (International Journal of Molecular Sciences, 2024)
# Where a SMILES comes first, the peptide text is derived from it.
# Test system: HEK293 cells
# Test: Cell viability assay (CellTiter-Blue) in HEK293 cells
# Format: cell-based
# Settings: 72 h at 37 °C, 3-fold dilution series starting with 20 µM, triplicate, non-linear regression (curve fit)
# Protocol: HEK293 cells were seeded at a density of 2.5 × 10^3 cells/100 µL per well in a 96-well plate (Sarstedt, Germany). In addition, a serial 1:2 dilution of the cell suspension was added to each plate to generate a standard curve. On the next day, cells were treated with serial 1:3 peptide dilutions in triplicate and incubated for 72 h at 37 °C. Then, 20 µL of CellTiter-Blue® Cell Viability Assay (Promega, Mannheim, Germany) was added to each well and incubated at 37 °C for a further 1–2 h. Fluorescence was recorded using a GloMax®-Multi Detection System (Promega, Mannheim, Germany). The percentage of viable cells was calculated from the cell dilution series from each plate by linear regression analysis. The selectivity index was calculated using the following formula: SI = CC50/IC50.
# Figure S1. Cell viability assay in HEK293 cells in the presence of peptides. Cells were incubated with 3 -fold dilution series of peptides starting with a concentration of 20 µM for 72 hours and measured using the Cell Titer Blue assay. Curve fitting of % viable cells of untrea ted control was performed using Graph Pad Prism softwar e.
# (1 picture or pasted object on this page, not shown here)
compound,measurement,value
CC(C)C[C@H](NC(=O)[C@H](CS)NC(=O)[C@H](CCC(N)=O)NC(=O)[C@@H]1CCCN1C(=O)[C@@H]1CCCN1C(=O)[C@H](CCCNC(=N)N)NC(=O)[C@H](CCCNC(=N)N)NC(=O)[C@H](CCCNC(=N)N)NC(=O)[C@H](CCC(N)=O)NC(=O)[C@H](CCCNC(=N)N)NC(=O)[C@H](CCCNC(=N)N)NC(=O)[C@H](CCCCN)NC(=O)[C@H](CCCCN)NC(=O)[C@H](CCCNC(=N)N)NC(=O)CN)C(=O)N[C@@H](C)C(=O)N[C@@H](Cc1ccccc1)C(=O)N[C@@H](Cc1ccc(O)cc1)C(=O)N[C@@H](C)C(=O)N[C@@H](CS)C(=O)N[C@@H](Cc1ccccc1)C(=O)N[C@@H](CS)C(=O)O [TAT-I24] (H-GRKKRRQRRRPPQCLAFYACFC-OH),HEK293 CC50,124 µM
